Ends that are not written are not given here. Peptide text beside a SMILES is read from it. * marks the point of attachment. Biotin = O=C1N[C@H]2[C@H](CS[C@H]2CCCCC(=O)*)N1

The target in this assay is T1, PDZ protein (GST-PDZ fusion) (Homo sapiens, UniProt Q9UQ26).
T1 construct: made in house; host or cells: E. coli (DH5alpha, BL21 or JM109)
T1 sequence (Q9UQ26 1-1411): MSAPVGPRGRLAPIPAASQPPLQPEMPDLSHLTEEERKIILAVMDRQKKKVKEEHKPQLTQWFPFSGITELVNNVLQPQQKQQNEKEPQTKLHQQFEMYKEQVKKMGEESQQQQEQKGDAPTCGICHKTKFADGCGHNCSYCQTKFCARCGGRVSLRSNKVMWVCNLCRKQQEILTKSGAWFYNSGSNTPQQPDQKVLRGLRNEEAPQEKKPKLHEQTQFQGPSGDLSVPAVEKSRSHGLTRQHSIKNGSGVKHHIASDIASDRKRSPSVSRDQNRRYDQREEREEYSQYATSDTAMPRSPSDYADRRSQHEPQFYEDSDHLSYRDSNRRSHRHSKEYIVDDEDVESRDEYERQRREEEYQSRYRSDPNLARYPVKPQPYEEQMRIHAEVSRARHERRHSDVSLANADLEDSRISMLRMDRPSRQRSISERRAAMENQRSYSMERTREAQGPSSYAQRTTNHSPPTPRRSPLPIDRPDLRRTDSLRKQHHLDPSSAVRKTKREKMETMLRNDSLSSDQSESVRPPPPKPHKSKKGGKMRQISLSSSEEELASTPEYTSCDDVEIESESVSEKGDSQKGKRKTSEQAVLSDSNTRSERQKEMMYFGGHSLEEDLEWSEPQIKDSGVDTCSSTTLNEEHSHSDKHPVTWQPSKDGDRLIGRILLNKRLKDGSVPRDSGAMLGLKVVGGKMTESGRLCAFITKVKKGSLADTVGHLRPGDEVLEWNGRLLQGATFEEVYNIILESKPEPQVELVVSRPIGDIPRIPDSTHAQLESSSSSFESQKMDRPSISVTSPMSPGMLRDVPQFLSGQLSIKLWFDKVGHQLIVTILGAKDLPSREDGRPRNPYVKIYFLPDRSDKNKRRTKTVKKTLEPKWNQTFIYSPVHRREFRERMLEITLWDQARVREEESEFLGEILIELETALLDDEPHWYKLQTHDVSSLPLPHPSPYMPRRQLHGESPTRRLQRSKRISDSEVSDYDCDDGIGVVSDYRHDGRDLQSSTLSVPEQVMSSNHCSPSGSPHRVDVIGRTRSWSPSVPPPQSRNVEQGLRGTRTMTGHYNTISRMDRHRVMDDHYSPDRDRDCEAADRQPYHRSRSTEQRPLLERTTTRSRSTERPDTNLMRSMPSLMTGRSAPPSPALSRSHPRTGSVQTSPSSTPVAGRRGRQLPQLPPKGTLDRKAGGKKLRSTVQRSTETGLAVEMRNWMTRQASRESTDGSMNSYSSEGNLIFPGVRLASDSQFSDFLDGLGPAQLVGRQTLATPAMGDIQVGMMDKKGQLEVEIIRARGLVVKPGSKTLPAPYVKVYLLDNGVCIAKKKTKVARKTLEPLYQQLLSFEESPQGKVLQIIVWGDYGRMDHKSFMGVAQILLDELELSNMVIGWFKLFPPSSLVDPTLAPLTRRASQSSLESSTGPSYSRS
Put plainly: G' assay (10 uM PL peptide), results of TABLE 7 and TABLE 12. The conditions noted are these: PDZ KIAA0751(L), PDZ Domain 1. It counts as binding. The gist of the method:
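Biotinylated PL peptides at 10 uM (vs 20 uM in G^0 assay) bound to GST-PDZ fusions; PDZ protein at 5 ug/ml unless another concentration listed. Bound peptide read as A450 nm, classified 0–5 (0 = A450 0; 5 = A450 >4 repeated).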

For `CC[C@H](C)[C@H](NC(=O)[C@H](Cc1ccc(O)cc1)NC(=O)[C@H](CC(C)C)NC(=O)[C@H](CCC(N)=O)NC(=O)[C@H](Cc1c[nH]cn1)NC(=O)[C@H](CO)NC(=O)[C@H](C)NC(=O)[C@H](CC(C)C)NC(=O)[C@@H](NC(=O)[C@H](CC(=O)O)NC(=O)[C@H](CCSC)NC(=O)[C@H](Cc1ccccc1)NC(=O)[C@@H]1CCCN1C(=O)[C@H](CCCNC(=N)N)NC(=O)[C@@H](NC(=O)[C@H](CC(C)C)NC(=O)[C@H](CC(N)=O)NC(=O)[C@H](CC(=O)O)NC(=O)[C@@H](NC(=O)[C@H](CO)NC(=O)CCCC[C@@H]1SC[C@@H]2NC(=O)N[C@@H]21)[C@@H](C)O)C(C)C)[C@@H](C)O)C(=O)O` [presenilin-2] (Biotin-STDNLVRPFMDTLASHQLYI-OH; C-terminus assumed), the Classification was 1 (A450 nm 0-1).

Take “A2AA_HUMAN (modified) (Biotin-HDFRRAFKKILARGDRKRIV; not fully specified)”: the Classification was 3 (A450 nm 2-3).

The values are drawn from patent US20050282743A1, “Molecular interactions in cells” (Arbor Vita Corporation, priority 2001, published 2005).
